Assay results reported in publication PMC4148704, “Agaricus meleagris pyranose dehydrogenase: Influence of covalent FAD linkage on catalysis and stability” (Archives of Biochemistry and Biophysics, 2014).

Biological target: T1, AmPDH (Agaricus meleagris pyranose dehydrogenase) (Macropsalliota meleagris, UniProt Q3L245)
T1 construct: gene pdh1; recombinant from Pichia pastoris X-33, secreted glycoprotein, about 75 kDa, monomer, 577 amino acids, covalent 8alpha-N(3)-histidyl FAD at H103
Assay: stopped-flow reductive half-reaction, […] nm
Format: biochemical
Details: pH 7.5, 65 mM sodium phosphate, 30 °C; 0.1-5 mM D-glucose; only a bimolecular rate constant

T1 sequence (Q3L245 26-602): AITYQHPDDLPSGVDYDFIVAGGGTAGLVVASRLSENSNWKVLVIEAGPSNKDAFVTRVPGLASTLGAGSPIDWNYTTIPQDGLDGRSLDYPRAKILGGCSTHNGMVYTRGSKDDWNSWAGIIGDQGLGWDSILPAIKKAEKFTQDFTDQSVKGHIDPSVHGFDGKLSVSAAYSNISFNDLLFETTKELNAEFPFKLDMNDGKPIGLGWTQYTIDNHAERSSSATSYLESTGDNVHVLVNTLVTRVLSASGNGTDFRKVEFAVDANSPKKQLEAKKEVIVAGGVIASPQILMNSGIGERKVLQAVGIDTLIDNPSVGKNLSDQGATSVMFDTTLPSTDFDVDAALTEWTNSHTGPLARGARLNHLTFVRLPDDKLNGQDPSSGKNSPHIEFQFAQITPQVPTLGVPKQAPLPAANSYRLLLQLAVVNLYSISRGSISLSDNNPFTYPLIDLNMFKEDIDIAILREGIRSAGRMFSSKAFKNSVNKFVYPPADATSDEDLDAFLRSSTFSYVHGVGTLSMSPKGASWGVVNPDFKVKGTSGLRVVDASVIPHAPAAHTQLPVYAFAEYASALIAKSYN

SMILES: OC[C@H]1OC(O)[C@H](O)[C@@H](O)[C@@H]1O (stereo partly drawn) [D-glucose]
- kapp: spectral changes of wild-type AmPDH upon addition of D-glucose
